Experimental data published in the supplement of paper PMC10627819.

How the values were obtained:
Test in all cases: fitness (endpoint OD595 vs no drug) (fraction); higher = more growth
S. pneumoniae D39V = tested on: S. pneumoniae D39V
Method in brief: (§1)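 Fitness compares growth at the stationary-phase transition with the robust mean of no-drug control wells, as a ratio of optical densities. The ratio is capped at 1. Wells of 384-well plates held 30 µl, or 55 µl for S. pneumoniae, inoculated at OD595 0.01. Readings at OD595 every 30 min for 14 h at 37 °C were corrected against the first reading.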

B. subtilis 168 = tested on: B. subtilis 168
Method in brief: as §1

S. aureus DSM 20231 = tested on: S. aureus DSM 20231
Method in brief: as §1
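Also: OD595 on entry to stationary phase over no-drug wells; at most 1.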

CN(C)[C@@H]1C(O)=C(C(N)=O)C(=O)[C@@]2(O)C(O)=C3C(=O)c4c(O)ccc(Cl)c4[C@@](C)(O)[C@H]3C[C@@H]12 [Chlortetracycline] + CN1C2=CC=CC=C2N=C3C1=CC=CC3=O [Pyocyanin]
one replicate
Conditions	fitness
S. aureus DSM 20231, first compound 0.006 µg/mL, partner 1.25 µg/mL	0.748
S. aureus DSM 20231, first compound 0.006 µg/mL, partner 2.5 µg/mL	0.692
S. aureus DSM 20231, first compound 0.006 µg/mL, partner 5 µg/mL	0.602
S. pneumoniae D39V, first compound 0.012 µg/mL, partner 0.325 µg/mL	0.893
S. pneumoniae D39V, first compound 0.012 µg/mL, partner 0.65 µg/mL	0.958
S. pneumoniae D39V, first compound 0.024 µg/mL, partner 0.325 µg/mL	0.932
S. pneumoniae D39V, first compound 0.024 µg/mL, partner 0.65 µg/mL	0.885
S. pneumoniae D39V, first compound 0.048 µg/mL, partner 0.325 µg/mL	0.858
S. pneumoniae D39V, first compound 0.048 µg/mL, partner 0.65 µg/mL	0.868

fitness
Conditions	partner 0.325 µg/mL	partner 0.65 µg/mL	partner 1.25 µg/mL	partner 1.3 µg/mL	partner 2.5 µg/mL	partner 5 µg/mL
B. subtilis 168, first compound 0.0475 µg/mL	–	–	0.837	–	0.825	0.692
B. subtilis 168, first compound 0.095 µg/mL	–	–	0.774	–	0.7	0.597
B. subtilis 168, first compound 0.19 µg/mL	–	–	0.594	–	0.529	0.416
S. aureus DSM 20231, first compound 0.012 µg/mL	–	–	0.487	–	0.43	0.359
S. aureus DSM 20231, first compound 0.024 µg/mL	–	–	0.185	–	0.147	0.121
S. aureus DSM 20231, first compound 0.048 µg/mL	–	–	0.0813	–	0.0826	0.0871
S. pneumoniae D39V, first compound 0.375 µg/mL	0.0228	0.0497	–	0.031	–	–
S. pneumoniae D39V, first compound 0.75 µg/mL	0.0553	0.0813	–	0.104	–	–
S. pneumoniae D39V, first compound 1.5 µg/mL	0.0507	0.0698	–	0.0588	–	–

CN(C)[C@@H]1C(O)=C(C(N)=O)C(=O)[C@@]2(O)C(O)=C3C(=O)c4c(O)ccc(Cl)c4[C@@](C)(O)[C@H]3C[C@@H]12 [Chlortetracycline] + CN(N=O)C(=O)N[C@@H](C=O)[C@@H](O)[C@H](O)[C@H](O)CO [Streptozotocin]
fitness, one replicate
Conditions	partner 0.15 µg/mL	partner 0.3 µg/mL	partner 0.6 µg/mL	partner 1.2 µg/mL	partner 2.4 µg/mL	partner 4.8 µg/mL
S. aureus DSM 20231, first compound 0.006 µg/mL	0.699	0.621	0.622	–	–	–
S. pneumoniae D39V, first compound 0.012 µg/mL	–	–	–	0.889	0.893	0.796
S. pneumoniae D39V, first compound 0.024 µg/mL	–	–	–	0.858	0.798	0.659
S. pneumoniae D39V, first compound 0.048 µg/mL	–	–	–	0.737	0.8	0.577

fitness
Conditions	partner 0.15 µg/mL	partner 0.3 µg/mL	partner 0.6 µg/mL	partner 1.2 µg/mL	partner 2.4 µg/mL	partner 4.8 µg/mL
B. subtilis 168, first compound 0.0475 µg/mL	0.901	0.934	0.956	–	–	–
B. subtilis 168, first compound 0.095 µg/mL	0.786	0.762	0.784	–	–	–
B. subtilis 168, first compound 0.19 µg/mL	0.533	0.547	0.556	–	–	–
S. aureus DSM 20231, first compound 0.012 µg/mL	0.503	0.532	0.507	–	–	–
S. aureus DSM 20231, first compound 0.024 µg/mL	0.227	0.232	0.189	–	–	–
S. aureus DSM 20231, first compound 0.048 µg/mL	0.0717	0.13	0.059	–	–	–
S. pneumoniae D39V, first compound 0.375 µg/mL	–	–	–	0.0355	0.0337	0.0486
S. pneumoniae D39V, first compound 0.75 µg/mL	–	–	–	0.0646	0.0497	0.0485
S. pneumoniae D39V, first compound 1.5 µg/mL	–	–	–	0.0765	0.0322	0.0617
